Measured values reported in the supplement of paper PMC6965134.
± gives the standard deviation of the averaged measurements.

Test: TIMS collisional cross section (CCS, N2) of the lipid ion; higher = larger ion cross section
Conditions: ionization mode: positive, one isomer drawn

| TIMS collisional cross section (sample type: HeLa) | TIMS collisional cross section (sample type: Liver) | TIMS collisional cross section (sample type: plasma) | Structure (SMILES) |
| --- | --- | --- | --- |
| 336.7 Å² | 337 Å² |  | CCCCCCCC/C=C\CCCCCCCCCC(=O)OC[C@@H](COC(=O)CCCCCCC/C=C\CCCCCCCC)OC(=O)CCCCCCCCCCCCCCCCCC [TG 18:1_19:0_20:1] (ion (formula + adduct): [C60H112O6+NH4] 1+) |
| 277.3 Å² |  | 277.4 Å² | CC/C=C\C/C=C\C/C=C\C/C=C\C/C=C\C/C=C\CCC(=O)O[C@H](CO/C=C\CCCCCCCCCCCCCC)COP(=O)(O)OCCN [PE P- 16:0@_22:6] (ion (formula + adduct): [C43H74NO7P+H] 1+) |
| 211.6 Å² |  |  | C12CC[C@@]3([H])C(C)(C)[C@@H](O)CC[C@]3(C)C=1CC[C@]1(C)[C@@]([H])([C@@](C)([H])CC/C=C(\C)/C)CC[C@@]21C=O [32-oxolanosterol] (ion (formula + adduct): [C30H48O2+H] 1+) |
| 279.1 Å² |  |  | CCCCCCCCCCCCC/C=C/[C@@H](O)[C@H](COP(=O)([O-])OCC[N+](C)(C)C)NC(=O)CCCCCCCCCCCCC [SM d18:1_14:0@] (ion (formula + adduct): [C37H75N2O6P+H] 1+) |
|  | 284.15 ± 0.49 Å² | 283.5 Å² | CCCCC/C=C\C/C=C\C/C=C\C/C=C\CCCC(=O)O[C@H](COC(=O)CCCCCCCCCCCCCCCCC)COP(=O)(O)OCCN [PE 18:0_20:4] (ion (formula + adduct): [C43H78NO8P+H] 1+) |
|  | 268.7 Å² |  | CCCCC/C=C\C/C=C\CCCCCCCC(=O)OC[C@H](COP(=O)(O)OCCN)OC(=O)CCCCCCC/C=C\CCCCCC [PE 18:2_16:1] (ion (formula + adduct): [C39H72NO8P+H] 1+) |
|  | 230.1 Å² |  | CCCCC/C=C\C/C=C\CCCCCCCCCC(=O)OC[C@@H](O)COP(=O)(O)OC[C@@H](O)CO [LPG 20:2] (ion (formula + adduct): [C26H49O9P+H] 1+) |
|  | 239 Å² | 239.3 Å² | CCCCCCCCCC/C=C\CCCCCCCC(=O)OC[C@@H](O)COP(=O)([O-])OCC[N+](C)(C)C [LPC 20:1_0:0] (ion (formula + adduct): [C28H56NO7P+H] 1+) |
|  | 344.1 Å² |  | CCCCCCCCCCCCCCCCCCCCCC(=O)OC[C@@H](COC(=O)CCCCCCCCCCCCCCCCC)OC(=O)CCCCCCCCCCCCCCCCC [TG 18:0_18:0_22:0] (ion (formula + adduct): [C61H118O6+NH4] 1+) |
|  | 312.5 Å² |  | CCCCCC/C=C\CCCCCCCC(=O)O[C@H](COC(=O)CCCCCCCCCCCCCC)COC(=O)CCCCCCCCCCCCCCCC [TG 15:0_16:1_17:0] (ion (formula + adduct): [C51H96O6+NH4] 1+) |
|  | 273.1 Å² |  | CCCCC/C=C\C/C=C\CCCCCCCC(=O)OC[C@H](COP(=O)(O)OCCN)OC(=O)CCCCCCC/C=C\C/C=C\CCCCC [PE 18:2_18:2] (ion (formula + adduct): [C41H74NO8P+H] 1+) |
|  | 332.3 Å² |  | CCCCC/C=C\C/C=C\C/C=C\C/C=C\CCCC(=O)OC[C@@H](COC(=O)CCCCCCCCCCCCCCC)OC(=O)CCCCCCCCCCCCCCCCCCC [TG 16:0_20:0_20:4] (ion (formula + adduct): [C59H106O6+NH4] 1+) |
|  | 312.9 Å² |  | CCCCC/C=C\C/C=C\CCCCCCCC(=O)OC[C@@H](COC(=O)CCCCCCCCCCCCC)OC(=O)CCCCCCC/C=C\CCCCCCCC [TG 14:0_18:1_18:2] (ion (formula + adduct): [C53H96O6+NH4] 1+) |
|  |  | 336.2 Å² | CCCCCCCC/C=C\CCCCCCCC(=O)OC[C@H](COC(=O)CCCCCCCCCCCCCCCCCCCC)OC(=O)CCCCCCC/C=C\CCCCCCCC [TG 18:1_18:1_21:0] (ion (formula + adduct): [C60H112O6+NH4] 1+) |
|  | 275.6 Å² |  | CCCCC/C=C\C/C=C\C/C=C\C/C=C\CCCC(=O)O[C@H](COC(=O)CCCCCCC/C=C\CCCCCCC)COP(=O)(O)OCCN [PE 17:1_20:4] (ion (formula + adduct): [C42H74NO8P+H] 1+) |
| 339.7 Å² |  |  | CCCCCCCCCCCCCCCCCCCCC(=O)OC[C@@H](COC(=O)CCCCCCCCCCCCCCC)OC(=O)CCCCCCCCCCCCCCCCCCC [TG 16:0_20:0_21:0] (ion (formula + adduct): [C60H116O6+NH4] 1+) |
|  | 280.9 Å² |  | CC/C=C\C/C=C\C/C=C\C/C=C\C/C=C\C/C=C\CCC(=O)O[C@H](COC(=O)CCCCCCCCCCCCCCC)COP(=O)(O)OCCN [PE 16:0_22:6@] (ion (formula + adduct): [C43H74NO8P+H] 1+) |
| 331.8 Å² |  | 330.8 Å² | CCCCC/C=C\C/C=C\CCCCCCCC(=O)O[C@H](COC(=O)CCCCCCC/C=C\CCCCCCCC)COC(=O)CCCCCCCCC/C=C\CCCCCCCC [TG 18:1_18:2_20:1] (ion (formula + adduct): [C59H106O6+NH4] 1+) |

| TIMS collisional cross section (sample type: HeLa) | TIMS collisional cross section (sample type: Liver) | TIMS collisional cross section (sample type: plasma) | Structure (SMILES) |
| --- | --- | --- | --- |
|  | 223.5 Å² | 223.3 Å² | CCCCCCCC/C=C\CCCCCCCCCC(=O)OC[C@@H](O)COP(=O)(O)OCCN [LPE 20:1] (ion (formula + adduct): [C25H50NO7P+H] 1+) |
|  | 296.3 Å² | 295.4 Å² | CC/C=C\C/C=C\C/C=C\C/C=C\C/C=C\CCCC(=O)O[C@H](COC(=O)CCCCCCCCCCCCCCCCC)COP(=O)([O-])OCC[N+](C)(C)C [PC 18:0@_20:5] (ion (formula + adduct): [C46H82NO8P+H] 1+) |
| 302.8 Å² |  | 302.85 ± 0.49 Å² | CCCCCC/C=C\CCCCCCCC(=O)OC[C@@H](COC(=O)CCCCCCCCCCCCC)OC(=O)CCCCCCCCCCCCCC [TG 14:0_15:0_16:1] (ion (formula + adduct): [C48H90O6+NH4] 1+) |
|  |  | 269.3 Å² | CCCCCCCCCCCCCCC(=O)O[C@H](COC(=O)CCCCCCCCCCC)COP(=O)([O-])OCC[N+](C)(C)C [PC 12:0_15:0@] (ion (formula + adduct): [C35H70NO8P+H] 1+) |
|  | 292.6 Å² |  | CC/C=C\C/C=C\C/C=C\C/C=C\C/C=C\C/C=C\CCC(=O)OC[C@H](COP(=O)(O)OCCN)OC(=O)CCCCCCCCCCCCCCCCCCC [PE 22:6_20:0] (ion (formula + adduct): [C47H82NO8P+H] 1+) |
| 286.7 Å² |  |  | CC/C=C\C/C=C\C/C=C\C/C=C\C/C=C\C/C=C\CCC(=O)OC[C@H](COP(=O)(O)OCCN)OC(=O)CC/C=C\C/C=C\C/C=C\C/C=C\C/C=C\C/C=C\CC [PE 22:6_22:6] (ion (formula + adduct): [C49H74NO8P+H] 1+) |
|  | 277.2 Å² |  | CC/C=C\C/C=C\C/C=C\C/C=C\C/C=C\CCCC(=O)O[C@H](COC(=O)CCCCCCC/C=C\C/C=C\CCCCC)COP(=O)(O)OCCN [PE 18:2@_20:5] (ion (formula + adduct): [C43H72NO8P+H] 1+) |
| 286.9 Å² |  |  | CC/C=C\C/C=C\C/C=C\C/C=C\C/C=C\CCCC(=O)O[C@H](COC(=O)CCCCCCCCCCCCCCC)COP(=O)([O-])OCC[N+](C)(C)C [PC 16:0_20:5@] (ion (formula + adduct): [C44H78NO8P+H] 1+) |
| 306.8 Å² |  |  | CCCCCC/C=C\CCCCCCCC(=O)O[C@@H](COC(=O)CCCCCCC/C=C\CCCCCCCC)COC(=O)CCCCCCCCCCCC [TG 13:0_16:1_18:1] (ion (formula + adduct): [C50H92O6+NH4] 1+) |
| 275.7 Å² | 276.1 Å² |  | CCCCC/C=C\C/C=C\CCCCCCCC(=O)O[C@H](COC(=O)CCCCCCC/C=C\CCCCCCCC)COP(=O)(O)OCCN [PE 18:1_18:2] (ion (formula + adduct): [C41H76NO8P+H] 1+) |
|  | 307.6 Å² |  | CC/C=C\C/C=C\C/C=C\C/C=C\C/C=C\C/C=C\CCC(=O)OC[C@@H](COC(=O)CCCCCCCCCCC)OC(=O)CCCCCCCCCCCCCCC [TG 12:0_16:0_22:6] (ion (formula + adduct): [C53H90O6+NH4] 1+) |
| 279.2 Å² |  | 278.7 Å² | CCC/C=C\C/C=C\CCCCCCCCCC(=O)O[C@H](COC(=O)CCCCCCCCCCCCC)COP(=O)([O-])OCC[N+](C)(C)C [PC 14:0_18:2] (ion (formula + adduct): [C40H76NO8P+H] 1+) |
|  | 272.3 Å² |  | CC/C=C\C/C=C\C/C=C\C/C=C\C/C=C\CCCCCC(=O)O[C@@H](CO)COC(=O)CCCCCCC/C=C\CCCCCCCC [DG 18:1_22:5_0:0] (ion (formula + adduct): [C43H72O5+NH4] 1+) |
|  | 290.8 Å² |  | CCCCCCCC/C=C\CCCCCCCC(=O)OC[C@H](COP(=O)(O)OCCN(C)C)OC(=O)CCCCCCC/C=C\CCCCCCCC [PE 18:1_18:1] (ion (formula + adduct): [C43H82NO8P+Na] 1+) |
|  | 299.3 Å² | 301 Å² | CCCCC/C=C\C/C=C\C/C=C\C/C=C\C/C=C\CCC(=O)O[C@H](COC(=O)CCCCCCCCCCCCCCCCC)COP(=O)([O-])OCC[N+](C)(C)C [PC 18:0_22:5] (ion (formula + adduct): [C48H86NO8P+H] 1+) |
|  |  | 294 Å² | CCCCC/C=C\C/C=C\C/C=C\C/C=C\CCCC(=O)O[C@H](COCCCCCCCC/C=C\CCCCCCCC)COP(=O)([O-])OCC[N+](C)(C)C [PC O- 18:1@_20:4] (ion (formula + adduct): [C46H84NO7P+H] 1+) |
|  | 281.4 Å² |  | CC/C=C\C/C=C\C/C=C\C/C=C\C/C=C\C/C=C\CCC(=O)OC[C@H](COP(=O)(O)OCCN)OC(=O)CCCCCCC/C=C\CCCCCCCC [PE 22:6_18:1] (ion (formula + adduct): [C45H76NO8P+H] 1+) |
|  | 346.9 Å² |  | CCCCC/C=C\C/C=C\CCCCCCCCCCCC(=O)OC[C@@H](COC(=O)CCCCCCC/C=C\CCCCCCCC)OC(=O)CCCCCCCCCCC/C=C\CCCCCCCC [TG 18:1_22:1_22:2] (ion (formula + adduct): [C65H118O6+NH4] 1+) |
